Source: US20170212981A1, “METHODS FOR SCREENING THERAPEUTIC AGENT FOR PROTEIN CONFORMATIONAL DISEASES” (SOOKMYUNG WOMEN'S UNIVERSITY INDUSTRY ACADEMIC COOPERATION …, priority 2016, published 2017)
Read-outs that look alike come from different tables or passages of the source.

Legend:
Aβ oligomers = molecular target: T1, Aβ oligomers (Homo sapiens, UniProt P05067); assay: Saturation assay, apparent binding constant for Aβ oligomers; settings: Aβ oligomers 20 μM, λex=530 nm
T1 construct: Preformed oligomers were prepared by Aβ1-40 peptide solubilized in borate-buffered saline; purchased American Peptide Co. (Sunnyvale, Calif.); host or cells: chemical synthesis, then cross-linked in house with glutaraldehyde
T1 sequence (P05067 672-711 limits assumed): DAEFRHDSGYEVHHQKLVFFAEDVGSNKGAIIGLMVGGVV
Experimental: FIG. 7 depicts BD-Oligo binding constant (Aβ oligomers: 20 μM, λex=530 nm), F is the fluorescence intensity of BD-Oligo at 580 nm after binding with Aβ oligomers; and F0 is the fluorescence intensity of BD-Oligo at 580 nm before binding with Aβ oligomers.
To quantify the affinity of BDOligo for Aβ oligomers, we measured the apparent binding constant (Kd) of BD-Oligo by conducting a saturation assay.

[1] = test system: APP/PS1 transgenic (Tg) AD model mice; assay: Ex vivo imaging of brains after ip injection; format: in vivo
Experimental: For ex vivo imaging, a stock solution of BD-Oligo was made at 10 mM in 100% DMSO.
Eighteen month old APP/PS 1 transgenic (Tg) AD model mice were given intraperitoneal (ip) injections with either 1.25 μL of BD-Oligo diluted in 500 μL of saline (n=2) or 500 μL of saline alone (n=2). APP/PS 1 Tg mice develop amyloid plaques from 4 months of age. Mice were anesthetized with an overdose of sodium pentobarbital and perfused 0.1 M PBS, pH 7.4. Brains were removed 24 h after the ip injection and fixed by immersion in periodate-lysine-paraformaldehyde for 24 h, cryo-protected in 30% sucrose for 3 days, and sectioned into 40 μm coronal sections using a cryostat. Brain sections from the BD-Oligoinjected mouse and the control APP/PS 1 mouse that received a saline alone injection were then stained for Aβ using fluorescent immunohistochemistry. Briefly, free floating sections were incubated with MOM blocking reagent (Vector) followed by an overnight incubation at 4° C. with anti-Aβ antibodies 4G8 and 6E10 diluted in MOM protein concentrate (Vector), as the present inventors previously published. Sections were then incubated with a 488 conjugated secondary antibody (Jackson Immunoresearch) for 2 h at room temperature, mounted onto slides, and cover slipped. Staining was visualized using a LMD6500 fluorescent microscope (Leica); 6E10/4G8 staining was imaged using in the green (488) channel, and BD-Oligo was imaged in the red (561) channel.

Aβ1-40 = molecular target: T2, Aβ1-40 (Homo sapiens, UniProt P05067); assay: Time-dependent fibril formation monitored by dye fluorescence; format: binding; settings: Aβ1-40 at 37° C. with shaking; aliquots added to dye
T2 construct: Synthetic Aβ1-40 was purchased from American Peptide Co; purchased American Peptide Co. (Sunnyvale, Calif.); host or cells: chemical synthesis
T2 sequence (P05067 672-711 limits assumed): as above
Experimental: For monitoring of fibril formation over time, 40 µM peptide solution of Aβ1-40 was prepared as above and incubated at 37° C. with 5 s shaking at every 7 min interval. Fluorescence readings were taken at various time point intervals by mixing a 30 μL aliquot of peptide solution to […]. ThT signal was monitored at 480 nm by 444 nm excitation, whereas BD-Oligo was excited at 530 nm and its emission detected at 585 nm. Fluorescence was measured using a SpectraMax M2 spectrophotometer (Molecular Devices, Sunnyvale, Calif.). Aβ1-40 was also coincubated with dye to study any effects the dye may have on fibril formation.

[2] = molecular target: T3, Aβ1-40 monomers, oligomers, fibrils (Homo sapiens, UniProt P05067); assay: Emission of dye incubated with preformed Aβ monomers, oligomers and fibrils; format: binding; settings: Aβ 20 μM
T3 construct: Synthetic Aβ1-40 was purchased from American Peptide Co; purchased American Peptide Co. (Sunnyvale, Calif.); host or cells: chemical synthesis
T3 sequence (P05067 672-711 limits assumed): as above
Experimental: Synthetic Aβ1-40 was purchased from American Peptide Co. (Sunnyvale, Calif.) in lyophilized form. Dry peptide was dissolved in 1,1,1,3,3,3-hexafluoro-2-isopropanol (HFIP) and incubated at 25° C. for 1 h to remove any preformed aggregates. It was aliquoted into small aliquots and dried using a speed-vac. The dry peptide was stored at −20° C. until required, where each aliquot was then dissolved in 5 M GuHCl 10 mM Tris.Cl pH 8 to 1 mM peptide solution. After sonication in a sonicating water bath for 15 min, the solution was diluted with phosphate-buffered saline (PBS), pH 7.4, and stored on ice until use. This freshly prepared sample is referred to as monomer. To form fibrils, 100 μM sample is incubated for 24 h at 37° C. with 5 s shaking at a 7 min interval. […] Prior to fluorescence assays, it is resolubilized in deionized distilled water and diluted in PBS. […]
HPLC-MS was taken on an Agilent-1200 with a DAD detector and a single quadrupole mass spectrometer (6130 series). […] Spectroscopic and quantum yield data were measured on a SpectraMax M2 spectrophotometer (Molecular Devices). Compounds in solvent (100 μL) in 96-well polypropylene plates was for fluorescence measurement. […] 1H-NMR and 13C-NMR spectra were recorded on Bruker AMX500 (500 MHz) spectrometers, and chemical shifts are expressed in parts per million (ppm) and coupling constants are reported as a J value in Hertz (Hz).

Structure (SMILES)	Bmax, best-fit value (Aβ oligomers; detailed statistics of the saturation fit)	Kd (Aβ oligomers; detailed statistics of the saturation fit, read-out: Kd, best-fit value) [nM]	Kd (Aβ oligomers; saturation assay, Scatchard plot, emission 580 nm, read-out: apparent binding constant (Kd) for Aβ oligomers) [nM]	toxicity associated with in vivo injection ([1]; 18 month old APP/PS1 Tg mice)	blood-brain barrier penetration ([1]; 18 month old APP/PS1 Tg mice, brains removed after 24 h)	labeling of brain tissue ([1]; brain sections 24 h later, co-stained with anti-Aβ 6E10/4G8)	incubation time at maximum fluorescence during Aβ fibril formation (Aβ1-40)	fluorescence enhancement with Aβ monomers, oligomers, fibrils ([2]; λex=530 nm)	fluorescence response to Aβ monomers, oligomers, fibrils ([2]; λex=440 nm, dye 5 μM)
CCOc1cccc(C=Cc2cc(C)c3n2[B-](F)(F)[N+]2=C(CCC(=O)OCC(Cl)(Cl)Cl)C=CC2=C3)c1O [BD-Oligo]	7.886	482	480	no apparent toxicity	able to cross the BBB	fluorescent labeling of AD brain tissue	about 1 day	highest fluorescence enhancement is observed upon incubation with Aβ oligomers	–
Cc1ccc2c(c1)sc(-c1ccc(N(C)C)cc1)[n+]2C.[Cl-] [ThT, Thioflavin T, reference compound]	–	–	–	–	–	–	about 1 day	–	increasing order of freshly prepared Aβ monomers, followed by oligomer and fibrils
